Experimental data from BindingDB's records for doi:10.1021/jm00394a010 (University of Minnesota, 1987).
Where a SMILES comes first, the peptide text is derived from it. Side-chain parts run from the residue outwards. The star is where a group is joined. X1 = CN1CC[C@]23c4c5ccc(O)c4O[C@H]2[C@@H](N*)CC[C@@]3(O)C1C5

Test: Binding affinity of Opioid receptor delta 1 by the displacement of delta-selective [3H]DSLET from brain membrane preparations.

| Molecule | Ki |
| --- | --- |
| CC(C)C[C@H](NC(=O)[C@H](Cc1ccccc1)NC(=O)CNC(=O)[C@H](CCC(=O)NCC(=O)NCC(N)=O)NC(=O)[C@@H](N)Cc1ccc(O)cc1)C(=O)O (H-YE([Gly-Gly-NH2])GFL-OH) | 88 nM |
| CC(=O)NCC(=O)NCC(=O)N[C@H]1CC[C@@]2(O)C3Cc4ccc(O)c5c4[C@@]2(CCN3C)[C@H]1O5 [1N-[10,17-dihydroxy-4-methyl-(13R,17S)-12-oxa-4-azapentacyclo[9.6.1.01,13.05,17.07,18]octadeca-7(18),8,10-trien-14-ylcarbamoylmethyl]-2-methylcarboxamidoacetamide] | 181 nM |
| CC(=O)N[C@H]1CC[C@@]2(O)C3Cc4ccc(O)c5c4[C@@]2(CCN3C)[C@H]1O5 [N-[(1S,13R,14S,17S)-10,17-dihydroxy-4-methyl-12-oxa-4-azapentacyclo[9.6.1.0^{1,13}.0^{5,17}.0^{7,18}]octadeca-7(18),8,10-trien-14-yl]acetamide] | 163 nM |
| CC(C)C[C@H](NC(=O)[C@H](Cc1ccccc1)NC(=O)CNC(=O)[C@H](CCC(=O)N[C@H]1CC[C@@]2(O)C3Cc4ccc(O)c5c4[C@@]2(CCN3C)[C@H]1O5)NC(=O)[C@@H](N)Cc1ccc(O)cc1)C(=O)O [oxymorphamine- and enkephalin-containing ligand 1] (H-YE(X1)GFL-OH) | 26 nM |
| CC(C)C[C@H](NC(=O)[C@H](Cc1ccccc1)NC(=O)CNC(=O)[C@H](CCC(=O)NCC(=O)NCC(=O)N[C@H]1CC[C@@]2(O)C3Cc4ccc(O)c5c4[C@@]2(CCN3C)[C@H]1O5)NC(=O)[C@@H](N)Cc1ccc(O)cc1)C(=O)O [oxymorphamine- and enkephalin-containing ligand 2] (H-YE([Gly-Gly-X1])GFL-OH) | 51 nM |
| H-YQGFL-OH | 47 nM |
